Laboratory results: patent publication US20070167509A1, “Use of phenserine and analogs to treat behavioral problems and improve trainability” (priority 2005, published 2007)

What was measured:
Assay type in all cases: in vivo
aged dogs = assay: CP-118,954 study of DNMP performance, counter-balanced within-subject design
middle-aged beagle dogs = assay: delayed-non-matching-to-sample task (DNMS), recognition memory; conditions: 0.5 mg/kg dose
Protocol: The present study assessed the effects of a 0.5 mg/kg dose of phenserine in middle-aged dogs tested on a recognition memory task.
Six middle-aged beagle dogs (4 female and 2 male) served as subjects. Dogs were divided equally into 2 groups matched for performance on their most recent 10 sessions on the delayed-non-matching-to-sample task (DNMS; (Callahan et al., 2000). One group was administered phenserine (0.5 mg/kg) via capsule in a meatball and the second group served as control. Animals were tested one-hour after drug administration and were tested on a total of 20 test sessions.
To examine the effects of phenserine on DNMS performance, mean performance over groups of five test sessions was analyzed (see e.g., FIG. 1).

senior beagle dogs [1] = assay: relearning of the delayed-non-matching-to-position task (DNMP); conditions: N=4
Protocol: Five male and two female senior beagle dogs (M+S.D.=14.60+1.46 years) served as subjects (Table 1). Dogs were divided into two groups matched on their most recent DNMP performance; the first group (N=4) was administered phenserine (0.5 mg/kg) via capsule in a meatball and the second group (N=3) was administered a placebo meatball. Dogs received a five-day wash-in period prior to study initiation and were administered their respective treatments 1-hour prior to DNMP testing. Dogs were trained initially on the DNMP using a 5-s delay until a 2-stage criterion was passed. The first stage required animals to achieve a score of 11/12 on one day, a score of 10/12 over two consecutive days, or a score of 29/36 over three consecutive days. Subsequently, the dogs were required to achieve a score of 26/36 over the following three days to pass the second stage.

senior beagle dogs [2] = assay: variable-delay DNMP under scopolamine / saline challenge; conditions: scopolamine 15 μg/kg SC, 20-s (p=0.038) and 80-s (p=0.082) delays
Protocol: Following relearning of the DNMP, dogs were tested on a variable-delay paradigm in which delays of 20 and 80 s were used. The delays occurred equally among the trials in a daily test session. We have previously shown that the 15-μg/kg dose selectively impairs DNMP performance (Araujo et al., 2004a). The dogs were first divided into two groups, one that was administered phenserine and the other received a placebo control. All subjects were given a 5-day stabilization period and then tested under scopolamine (15 μg/kg, SC) and saline (SC), administered 45 min prior to testing, over two test days separated by a treatment washout day. One day following the second treatment day, animals were removed from phenserine or placebo treatments and re-tested on the stabilization days and under scopolamine and saline treatment as indicated above.

O=C1Cc2cc3c(CCC4CCN(Cc5ccccc5)CC4)noc3cc2N1 [CP-118,954]
DNMP performance (aged dogs): no significant improvement

CN1CC[C@@]2(C)c3cc(OC(=O)Nc4ccccc4)ccc3N(C)[C@@H]12 [phenserine, (−)-phenylcarbamoyleseroline]
adverse effects (middle-aged beagle dogs): No obvious adverse effects
mean errors to relearn the DNMP (M+SEM) (senior beagle dogs [1]; 0.5 mg/kg via capsule 1 hour prior to testing, 5-s delay, placebo 14.33+6.98): 5.25+0.85 errors
fewer errors compared to the most previous relearning rates (M+SEM) (senior beagle dogs [1]; 0.5 mg/kg, placebo group showed more errors (6.33+9.53)): 5.00+4.51 errors

CN1[C@@H]2C[C@@H](OC(=O)[C@H](CO)c3ccccc3)C[C@H]1[C@@H]1O[C@@H]12 [scopolamine]
DNMP performance of the placebo group after treatment with scopolamine (senior beagle dogs [2]): performance deficits
